As usually defined, the Kd is the concentration at which binding is half-saturated.

Like-named read-outs stand apart in the source and are kept apart here. Where no end group is shown, it is not given here. [ ]: non-standard residue; d: D form. pY = N[C@@H](Cc1ccc(OP(=O)(O)O)cc1)C(=O)O

The test system of test [1] is G6B-b tyrosine phosphorylation. Briefly: G6B-b tyrosine phosphorylation in washed human platelets (4G10 staining). In kind it is cell-based. To be noted: for G6B-b tyrosine phosphorylation: 1 µg/ml CRP, 5 minutes, 4G10 staining, n = 4; for state of G6B-b phosphorylation: PP2 5 µM, PP3 5 µM or pervanadate, 10 minutes. As for the experimental part:
One microgram of antibody was bound to 10 µl of Protein A-sepharose (20 µl of a 50% slurry), in a final volume of 100 µl PBS, by incubation on a rotating wheel for 90 minutes at 4°C. Washed human platelets were incubated with either Tyrodes, 5 µM PP2, 5 µM PP3 or pervanadate for 10 minutes, after which they were pelleted and lysed in DP lysis buffer (20 mM Tris pH 7.5, 150 mM NaCl, 5 mM NaOV4, 1× Complete Protease Inhibitor (Roche) and 5% w/v n-Dodecyl-β-D-maltoside (Calbiochem)) such that each IP sample received 4×10^8 platelets in a final volume of 100 µl DP lysis buffer. Samples were mixed on a rotating wheel at 4°C for 1 hour. Samples were washed once in 200 µl DP lysis buffer and twice in 1 ml PBS prior to boiling in Laemmli buffer for 5 minutes.
We wanted to determine whether SHP-2 could associate with the receptor in human platelets as this interaction could relate to receptor function and regulation of GPVI signalling. […] In the absence of receptor agonists, we carried out co-immunoprecipitation experiments in platelet lysates treated with the SFK inhibitor, PP2, its non-active analogue, PP3, or the tyrosine phosphatase inhibitor, pervanadate. […] Under these conditions, isolation of […] by immunoprecipitation was robust (Figure 1B, top panel).
(A) Washed human platelets were incubated under stirring, but non-aggregating, conditions with the SFK inhibitor, PP2, or DMSO, prior to the addition of 1 µg/ml CRP or Tyrodes buffer. Samples were collected after 5 minutes. Tyrosine phosphorylation was detected by 4G10 staining (top panel, n = 4). […] (B) G6B-b co-immunoprecipitates with […] in pervanadate-treated washed human platelets.

Test [2] has as its target T1, N-terminal SH2 domain of SHP-2 (Homo sapiens, UniProt Q06124).
T1 construct: SHP-2 (N)SH2 (His-tag) (OMC #3912); His-tag; host or cells: E. coli BL21(DE3)
T1 sequence (Q06124 6-102 limits assumed): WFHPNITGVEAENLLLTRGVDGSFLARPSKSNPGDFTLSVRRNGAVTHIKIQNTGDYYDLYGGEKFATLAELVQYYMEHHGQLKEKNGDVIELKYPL
Description: SPR (BIAcore 3000), single N-terminal SH2 domain of SHP-2. The format is binding. Conditions: HBS pH 7.4, 37°C, 10 µl/min. As for the experimental part:
(§1) These proteins were expressed in BL21(DE3) cells (Invitrogen) induced with 1 mM IPTG for 4 hours at 37°C. Bacteria were pelleted and washed in PBS/0.5 M NaCl prior to sonication in PBS/0.5 M NaCl, in the presence of protease inhibitor cocktail (Complete, EDTA-free, Roche). Soluble and insoluble fractions were separated by centrifugation at 30,000 g for 60 minutes. Soluble fractions containing tagged proteins were incubated for 1 hour at 4°C with end-over-end mixing in the presence of washed Ni-Sepharose (GE Lifesceinces, Little Chalfont, U.K.) supplemented with 40 mM imidazole or Amylose resin (NEB, Herts, U.K). Proteins were eluted according to the manufacturer's instructions and purified by size exclusion chromatography on an AKTApurifier (GE Lifesciences, Little Chalfont, U.K).
Experiments were conducted on a BIAcore™ 3000 in HBS buffer (0.01 M HEPES, pH 7.4, containing 0.15 M NaCl, 3 mM EDTA, and 0.005% v/v P-20, GE Life Sciences, Amersham, UK). Streptavidin was coupled to a research grade CM5 chip (GE Life Sciences, Amersham, UK) as previously described, [13]. Protein-peptide interactions were carried out a rate of 10 µl/min at a constant temperature of 37°C to more accurately reflect physiological conditions. Biotinylated peptides were bound to the streptavidin-coated CM5 chips at 37°C to between 25–50 RU [14]. Purified monomeric SH2 domains were passed over the immobilised peptides at a range of concentrations. Anti-phosphotyrosine monoclonal antibody (Sigma, Poole, U.K.) was passed over the chip to saturation at the end of each experiment to verify peptide coverage on the chip. Binding affinities for the single ITIM/ITSM peptides were determined by plotting equilibrium binding measurements (RU) against SH2 domain protein concentration (Origin 8, OriginLab, MA, USA). KD was defined as the concentration of SH2 protein that gave half maximal binding to the peptide. […] KD was determined as Koff/Kon, which were determined using both GraphPad Prism 5.0 (GraphPad, La Jolla, CA, USA) and BIAevaluation Software (GE Life Sciences, Amersham,UK).
(Surface plasmon resonance follows binding to a sensor surface in real time, without labels.)

The subject of test [3] is G6B-b dual phosphopeptide. Description: SPR (BIAcore 3000) of SHP-1/SHP-2 tandem SH2 domains over immobilised G6B-b phosphopeptide. In kind it is binding, human. To be noted: for Koff / Kd: HBS pH 7.4, 37°C, 50 µl/min; for Koff: Prism 5; for Kd: KD = Koff/Kon. As for the experimental part: Experiments were conducted on a BIAcore™ 3000 in HBS buffer (0.01 M HEPES, pH 7.4, containing 0.15 M NaCl, 3 mM EDTA, and 0.005% v/v P-20, GE Life Sciences, Amersham, UK). Streptavidin was coupled to a research grade CM5 chip (GE Life Sciences, Amersham, UK) as previously described, [13]. Protein-peptide interactions were carried out a rate of 10 µl/min at a constant temperature of 37°C to more accurately reflect physiological conditions. Biotinylated peptides were bound to the streptavidin-coated CM5 chips at 37°C to between 25–50 RU [14]. Purified monomeric SH2 domains were passed over the immobilised peptides at a range of concentrations. Anti-phosphotyrosine monoclonal antibody (Sigma, Poole, U.K.) was passed over the chip to saturation at the end of each experiment to verify peptide coverage on the chip. Binding affinities for the single ITIM/ITSM peptides were determined by plotting equilibrium binding measurements (RU) against SH2 domain protein concentration (Origin 8, OriginLab, MA, USA). KD was defined as the concentration of SH2 protein that gave half maximal binding to the peptide. For the 60-mer peptides, SH2 domains were passed over the chip surface at 50 µl/min. KD was determined as Koff/Kon, which were determined using both GraphPad Prism 5.0 (GraphPad, La Jolla, CA, USA) and BIAevaluation Software (GE Life Sciences, Amersham,UK).
Previous studies have shown that using single phosphomotifs (isolated from sequences in which they may exist in tandem) and single SH2 domains can be misleading, [16]. We, therefore, assessed phosphatase-G6B-b interactions in more detail using the tandem SH2 domains of both SHP-2 (Figure 4A) and SHP-1 (Figure 4B). We kinetically determined the binding affinity (KD = koff/kon) by SPR at physiological temperatures.

The test system of test [4] is endogenous G6B-b. Briefly: Pull down of endogenous G6B-b from platelet lysate with purified SH2 domains. Conditions: washed human platelet lysates activated with CRP or thrombin. The format is binding. As for the experimental part: as §1, with “Proteins were eluted according to the manufacturer's instructions and purified by size exclusion chromatography on an AKTApurifier (GE Lifesciences, Little Chalfont, U.K).” left out
Based on this study, the N-terminal SH2 domains of both SHP-1 and SHP-2 should preferentially bind to the ITIM (central pY at position 211) while the C-terminal domains should associate with the ITSM (pY at position 237). […] The N-terminal SH2 domain of SHP-1 was insoluble and it was not possible to purify sufficient quantities for binding studies. […]
(A) Peptide associated material was isolated from pre-cleared lysates separated on 4–12% NuPage Bis-Tris gels; proteins identified by Western Blotting (representative blots, n = 3). […] Bound material was separated from unbound material by SDS-PAGE and quantified (n = 3, SEM, ** denotes p<0.01, * denotes p<0.05). […]

Test [5] concerns washed human platelets (collagen). Briefly: Light transmission aggregometry of TAT-peptide-loaded platelets, collagen. In kind it is cell-based. Conditions: vehicle (DMSO) control; light transmission aggregometry. As for the experimental part: (§2) Whole blood was taken from healthy volunteers and collected into 50 ml syringes containing 5 ml acid citrate-dextrose (ACD) in accordance with procedures approved by the Local Research Ethics Committee (Ref: 07/Q1603/17). Platelet-rich plasma (PRP) was isolated by centrifugation at 200 g for 10 minutes at room temperature. PRP was pooled and 10 µg PGI2 was added before centrifugation at 1000 g for 10 minutes at room temperature. Platelets were resuspended in 1 ml Tyrodes buffer (134 mM NaCl, 0.34 mM Na2HPO4, 2.9 mM KCl, 12 mM NaHCO3, 20 mM HEPES, 5 mM glucose, 1 mM MgCl2, pH 7.3) pre-warmed to 30°C and 150 µl ACD. The volume was adjusted to 25 ml with Tyrodes buffer, followed by 3 ml ACD and 1.25 µg PGI2. Cells were centrifuged at 1000 g for 10 minutes at room temperature and the resultant cell pellet was resuspended in 1 ml pre-warmed Tyrodes buffer before adjusting the volume to a final cell density of 4×10^8 cells/ml (aggregations) or 2×10^9 cells/ml (peptide pull downs). Where appropriate, 1 mM EGTA, 10 µM indomethacin and 2 U/ml apyrase were added to inhibit aggregations (referred to as non-aggregating conditions).
(§3) Fluorescein-labelled, TAT-G6B-b peptides were synthesised by Peptide Protein Research Ltd (Hampshire, U.K.). Peptides were either unphosphorylated, or phosphorylated at both ITIMs as follows: Dual phosphorylated peptide – FLUO- […]*[…]*AVVV or unphosphorylated control peptide (lacking tyrosine phosphorylation) - FLUO- […]. TAT sequences are underlined and phosphorylated tyrosines marked with an asterisk. Peptides were loaded into washed platelets by incubation with 10 µM peptide for 15 minutes at 30°C, after which they were assessed by light transmission aggregometry. Peptide loading conditions were optimised and verified by flow cytometry.
(§4) Washed human platelets were loaded with TAT-G6B-b peptides (either dual phosphorylated or unphosphorylated) and changes in CRP efficacy determined by light transmission aggregometry. […] Thrombin-mediated activation was unaffected (data not shown). […] Peptide loading was verified by flow cytometry (Figure 9C and 9D.

Test [6] deals with washed human platelets (CRP). Briefly: Light transmission aggregometry of TAT-peptide-loaded platelets, CRP. To be noted: vehicle (DMSO) control; light transmission aggregometry. In kind it is cell-based. As for the experimental part:
as §2, §3, §4

As for `CC(C)(C)n1nc(-c2ccc(Cl)cc2)c2c(N)ncnc21` [PP2], in test [1], the “G6B-b tyrosine phosphorylation” value was “reduced the G6B-b tyrosine phosphorylation in response to CRP” and the “state of G6B-b phosphorylation” value was “non-phosphorylation”.

For `Nc1ncnc2c1cnn2-c1ccccc1` [PP3], in test [1], the “G6B-b tyrosine phosphorylation” value is on record as “no effect on tyrosine phosphorylation” and the “state of G6B-b phosphorylation” value is on record as “partial/sub-maximal”.

Regarding “PLVKTEPQRPVKEEEPKIPGDLDQEPSLLYADLDHLALSRPRRLSTADPADASTI[pY]AVVV [pY237]”, in test [2] (read-out: KD, estimated by fixing maximum binding), the Kd was 10000 nM.

Regarding “PLVKTEPQRPVKEEEPKIPGDLDQEPSLL[pY]ADLDHLALSRPRRLSTADPADASTIYAVVV [pY211]”, the dissociation constant (Kd) in test [2] (equilibrium binding, single site fitting, read-out: KD) was determined as 110 nM.

With “SHP-1: SHP-1 (N+C)SH2 domains, recombinant”, the Koff in test [3] (tandem SH2 domains 0.1 nM) is 0.0104 s⁻¹; in test [3] (tandem SH2 domains 1 nM), 0.01106 s⁻¹; in test [3] (tandem SH2 domains 10 nM), 0.01141 s⁻¹; in test [3] (tandem SH2 domains 100 nM) it was 0.01025 s⁻¹; in test [3] (tandem SH2 domains 1000 nM), 0.00892 s⁻¹. The Kd is 43.3 nM in test [3] (tandem SH2 domains 0.1 nM), 42.5 nM in test [3] (tandem SH2 domains 1 nM), 20.3 nM in test [3] (tandem SH2 domains 10 nM) and 32 nM in test [3] (tandem SH2 domains 100 nM). Also, in test [4], the “isolation of endogenous G6B-b” value is on record as “able to isolate endogenous G6B-b from platelet lysate”.

“SHP-2: SHP-2 (N+C)SH2 domains, recombinant”: in test [3] (SPR, dual phosphopeptide), the “fold higher binding affinity of SHP-2 tandem SH2 domains than single N(SH2) domain” value was “approximately 200 fold”. For the same compound, the Koff came to 0.0720 s⁻¹ in test [3] (tandem SH2 domains 0.1 nM); 0.1660 s⁻¹ in test [3] (tandem SH2 domains 1 nM); 0.0206 s⁻¹ in test [3] (tandem SH2 domains 10 nM); 0.0144 s⁻¹ in test [3] (tandem SH2 domains 100 nM); 0.0106 s⁻¹ in test [3] (tandem SH2 domains 1000 nM). Further, the Kd was found to be 0.474 nM in test [3] (tandem SH2 domains 0.1 nM); 0.624 nM in test [3] (tandem SH2 domains 1 nM); 0.145 nM in test [3] (tandem SH2 domains 10 nM); 0.528 nM in test [3] (tandem SH2 domains 100 nM); 0.634 nM in test [3] (tandem SH2 domains 1000 nM). In addition, in test [4], the “isolation of endogenous G6B-b” value is on record as “able to isolate G6B-b from platelet lysate”.

In the case of collagen [reference compound], in test [5], the “EC50 of collagen, vehicle control platelets” value came out at 0.4 µg/mL.

Turning to “collagen-related peptide [CRP, reference compound]”, the “EC50 of CRP, vehicle control platelets” value in test [6] came to 0.4 µg/mL.

Turning to pervanadate, the “state of G6B-b phosphorylation” value in test [1] is “maximal phosphorylation”.
